Data from patent US4177287A, “Pharmaceutical compositions of N1 -acyl-N2 -phenyldiaminopropanols and process for their preparation” (Kali-Chemie Pharma GmbH, priority 1977, dated 1979).
Counter-ions that a name gives are not always drawn.

How the values were obtained:
[1] = test system: indomethacine-induced ulcers; assay: Effectiveness against indomethacine-induced ulcers in the rat; type: in vivo; conditions: for inhibition at 68 mg/kg: dosage 68 mg/kg p.o.
Procedure: To at least 6 male rats, having a body-weight of from 170 to 220 g, dosages of the test compounds are administered orally in an amount of 0.5 ml of a suspension medium per 100 g animal body-weight. The animals of the blank control group received the corresponding amount by volume of the suspension medium only. One hour after application of the test compounds, a dosage of 20 mg per kg of indomethacine contained in an amount of 0.5 ml of a suspension per 100 g animal body-weight, are orally applied to each animal for producing ulcers. 24 hours after the application of indomethacine, the animals are sacrificed.
The mean value and the standard deviation of the numbers of ulcers is calculated and subsequently the inhibiting activity of the test compounds and a standard compound are calculated as percent inhibition compared with the blank control group.

[2] = test system: secretion in the stomach; assay: Effect on the secretion in the stomach of narcotized rats (determination of the pH-value); type: in vivo, rat; conditions: for inhibition at 300 mg/kg: dosage 300 mg/kg p.o., narcotized rat, acetylcholine 10 mg/kg i.p. control = 100
Procedure: 3. Effect on the secretion in the stomach of narcotized rats (determinationof the pH-value)
The test is performed on narcotized (urethane narcosis) male rats, having a body weight of from 200-230 g. For this purpose N/4000-sodium hydroxide solution is perfused into the stomachs of rats at a rate of 1 ml per minute by means of a cardia- and pylorus-catheter. The pH value of the perfusate, which leaves the stomach by way of the pylorus catheter, is determined by means of a one-rod measuring system, and is continuously registered.
In order to perform a comparative control test, after a pre-run period of 20 minutes, 10 mg per kg of acetylcholine are applied intraperitoneously. The resulting comparative control value is defined as being 100.
For evaluation, the surface-integral is calculated numerically with the aid of the rule of Simpson. The degree of inhibition of the secretion is calculated from the difference between the surfaces before and after the application of the test compound.

[3] = in vivo; conditions: mouse, po, single application, 7-day, unfed white NMRI-mice, read-out: Toxicity LD50 p.o.
Procedure: The acute 7-day-toxicity is determined after a single application per os in white NMRI-mice which had not been fed. The calculation of the LD50 is carried out by probitanalysis by means of electronic data processing (see L. Cavalli-Sforza, Gustav Fischer-Verlag, Stuttgart (1964), Grundbegriffe der Biometrie, pp. 153).

[4] = test system: ulcer; conditions: background; cited from earlier work
[5] = po, rat, indomethacine 20 mg/kg p.o., 24 hours

Row | SMILES | inhibition at 68 mg/kg [1, 5] [%] | inhibition at 300 mg/kg [2] [%] | LD50 at 168 h [3] [mg/kg] | effect on the ulcer (in words) ([1]; at the low dosage that inhibits secretion (footnote to Table 1)) | inhibition at 12 mg/kg ([1]; po, dosage 12 mg/kg p.o., rat, indomethacine 20 mg/kg p.o., 24 hours) [%] | side effects in ulcer therapy (in words) [4] | success in ulcer therapy (in words) [4] | inhibition at 0.5 mg/kg ([2]; Rattus norvegicus, ip, read-out: Inhibition of secretion in the stomach, % inhibition) [%] | inhibition of the secretion in the stomach (in words) ([2]; at a low dosage already (footnote to Table 1)) | inhibition at 75 mg/kg ([1]; po, dosage 75 mg/kg p.o., rat, indomethacine 20 mg/kg p.o., 24 hours) [%]
1 | CN(CC(O)CNC(=O)c1ccccc1F)c1ccc(Cl)cc1 (stereo not drawn) [Compound 2, N1-(2-fluorobenzoyl)-N2-methyl-N2-(4-chlorophenyl)-1,3-diaminopropan-2-ol] | 49 | 0 | > 1470 | – | – | – | – | – | – | –
2 | COc1ccc(C(=O)NCC(O)CN(C)c2ccc(Cl)cc2)cc1OC (stereo not drawn) [Compound 1, N1-(3,4-dimethoxybenzoyl)-N2-methyl-N2-(4-chlorophenyl)-1,3-diaminopropan-2-ol] | 44 | 0 | > 6810 | – | – | – | – | – | – | –
3 | CN1[C@@H]2CC[C@H]1C[C@@H](OC(=O)C(CO)c1ccccc1)C2 (stereo partly drawn) [A, atropine sulfate, reference compound] | – | – | – | does not have a sufficiently | 26 | side effects which occur already at low dosages | have not succeeded in ulcer therapy | 100 | strong inhibition | –
4 | CN(CC(O)CNC(=O)c1ccccc1C(F)(F)F)c1ccc(Cl)cc1 (stereo not drawn) [Compound 3, N1-(2-trifluoromethylbenzoyl)-N2-methyl-N2-(4-chlorophenyl)-1,3-diaminopropan-2-ol] | – | 0 | > 1470 | – | – | – | – | – | – | 40
5 | CN(CC(O)CNC(=O)c1ccco1)c1ccc(Cl)cc1 (stereo not drawn) [Compound 4, N1-(2-furoyl)-N2-methyl-N2-(4-chlorophenyl)-1,3-diaminopropan-2-ol] | 44 | 0 | > 1470 | – | – | – | – | – | – | –
